BindingDB's records for doi:10.1021/acs.jmedchem.1c01403 (Lupin, 2021)

Test: Inhibition of PHA-stimulated IL2 secretion in human Jurkat T cells preincubated for 10 mins followed by PHA addition and measured after 20 to 24 hrs by ELISA

Q: With `Cc1ccc(-c2nn(C)c(=O)o2)cc1-c1ccc(NC(=O)c2c(F)cccc2F)cc1` [US10292981, Example 33] as the compound, how does the IC50 read?
A: 0.034 µM

Q: With `Cc1ccc(-c2nn(C)c(=O)o2)cc1-c1cnc(NC(=O)c2c(F)cccc2F)cn1` [US10292981, Example 87] as the compound, how does the IC50 read?
A: 0.064 µM

Q: With `Cc1ccc(C2=NOC(C)(C)C2=O)cc1-c1ccc(NC(=O)c2c(F)cccc2F)nc1` [US10292981, Example 4] as the compound, how does the IC50 read?
A: 0.178 µM

Q: With `Cc1ccc(C2=NOC(C)(C)C2=O)cc1-c1cnc(C(=O)Nc2c(F)cccc2F)cn1` [US10292981, Example 121] as the compound, how does the IC50 read?
A: 0.15 µM

Q: Which IC50 does the source give for `Cc1ccc(C2=NOC(C)(C)C2=O)cc1-c1cnc(NC(=O)c2c(F)cncc2F)cn1` [US10292981, Example 114] here?
A: 0.094 µM

Q: Which IC50 does the source give for `Cc1ccc(C2=NOC(C)(C)C2=O)cc1-c1cnc(NC(=O)c2ccccc2Cl)cn1` [US10292981, Example 78] here?
A: 0.171 µM

Q: With `Cc1ccc(C2=NOC(C)(C)C2=O)cc1-c1ccc(NC(=O)c2c(F)cccc2F)cc1` [US10292981, Example 3] as the compound, how does the IC50 read?
A: 0.069 µM

Q: For `CCn1nc(-c2ccc(C)c(-c3ccc(NC(=O)c4c(F)cccc4F)cc3)c2)oc1=O` [US10292981, Example 34], which IC50 is on record?
A: 0.078 µM

Q: For `Cc1ccc(C2=NOC(C)(C)C2=O)cc1-c1cnc(NC(=O)c2c(F)cccc2Cl)cn1` [US10292981, Example 80], which IC50 is on record?
A: 0.065 µM

Q: With `Cc1ccc(C2=NOC(C)(C)C2)cc1-c1cnc(NC(=O)c2c(F)cccc2F)cn1` [US10292981, Example 53] as the compound, how does the IC50 read?
A: 0.328 µM
